Values quoted from earlier work, collected in publication PMC6008299, “Impact of race on dose selection of molecular-targeted agents in early-phase oncology trials” (British Journal of Cancer, 2018).
Where two headings read alike, the source gives them in different places. Marks after values point to notes of the source that are not given here.

Tests used:
[1] = tested on: patients with solid tumours; details: dose at which PK is compared; ref not given; cited from earlier work
[2] = Asian, at the MTD, ref not given, cited from earlier work
[3] = tested on: patients with solid tumours; set-up: method as in PMID 15955900; details: recommended phase 2 dose; ref [11]–[44]; cited from earlier work
[4] = cited from earlier work
[5] = tested on: patients with solid tumours; set-up: method as in PMID 15955900; details: recommended phase 2 dose; ref [11]–[44]; cited from earlier work; remark: listed apart in the source
[6] = at the MTD, Day 1, ref not given
[7] = at the MTD, Day 28, ref not given
[8] = at the MTD, Day 15, ref not given
[9] = at the MTD, Day 8, ref not given
[10] = at the MTD, Day 23 or 24, ref not given
[11] = at the MTD, Day 21, ref not given

CN(C)C/C=C/C(=O)Nc1cc2c(Nc3ccc(F)c(Cl)c3)ncnc2cc1O[C@H]1CCOC1 [Afatinib]
MTD [1]: 50 mg QD | AUC0-24 ([2]; Day 1): 539 ng·h/mL | T1/2 ([2]; Day 1): 14.8 h | AUC0-24 ([2]; Day 28): 1010 ng·h/mL | T1/2 ([2]; Day 28): 33.5 h | RP2D (Japan) [3]: 50 mg QD | AUC0-∞ ([4]; Caucasian, at the MTD, Day 1 (footnote *), ref not given): 762* ng·h/mL | T1/2 [4, 6]: 21.9 h | Tmax [4, 6]: 5.08 h | AUC0-24 [4, 7]: 598 ng·h/mL | T1/2 [4, 7]: 22.3 h | Tmax [4, 7]: 5.00 h | RP2D (Western) [5]: 50 mg QD

CNC(=O)c1ccccc1Sc1ccc2c(/C=C/c3ccccn3)n[nH]c2c1 [Axitinib]
MTD [1]: 5 mg BID | AUC0-24 ([2]; Day 1): 142 ng·h/mL | Cmax ([2]; Day 1): 17.0 ng/mL | T1/2 ([2]; Day 1): 4.8 h | Tmax ([2]; Day 1): 4.10 h | AUC0-24 ([2]; Day 15): 138 ng·h/mL | Cmax ([2]; Day 15): 21.4 ng/mL | T1/2 ([2]; Day 15): 4.04 h | Tmax ([2]; Day 15): 1.37 h | RP2D (Japan) [3]: 5 mg BID | AUC0-24 [4, 6]: 188 ng·h/mL | Cmax [4, 6]: 22 ng/mL | T1/2 [4, 6]: 2.3 h | Tmax [4, 6]: 3.2 h | AUC0-24 [4, 8]: 258 ng·h/mL | Cmax [4, 8]: 27 ng/mL | T1/2 [4, 8]: 2.3 h | Tmax [4, 8]: 2.4 h | RP2D (Western) [5]: 5 mg BID

Cc1cc(Nc2ncc(Cl)c(Nc3ccccc3S(=O)(=O)C(C)C)n2)c(OC(C)C)cc1C1CCNCC1 [Ceritinib]
MTD [1]: 750 mg QD | AUC0-24 ([2]; Day 8): 25700 ng·h/mL | Cmax ([2]; Day 8): 1220 ng/mL | Tmax ([2]; Day 8): 6.96 h | RP2D (Japan) [3]: 750 mg QD | AUC0-24 [4, 9]: 16,500±4750 ng·h/mL | Cmax [4, 9]: 800 ± 205 ng/mL | T1/2 [4, 9]: 41 h | Tmax [4, 9]: 4 to 6 h | RP2D (Western) [5]: 750 mg QD

C[C@@H](Oc1cc(-c2cnn(C3CCNCC3)c2)cnc1N)c1c(Cl)ccc(F)c1Cl [Crizotonib]
RP2D (Japan) [3]: 250 mg BID | RP2D (Western) [5]: 250 mg BID

C#Cc1cccc(Nc2ncnc3cc(OCCOC)c(OCCOC)cc23)c1 [Erlotinib]
MTD [1]: 150 mg QD | Cmax ([2]; Day 1): 958 ± 457.19 ng/mL | T1/2 ([2]; Day 1): 25.92 ± 9.31 h | Tmax ([2]; Day 1): 6.00 ± 8.92 h | Cmax ([2]; Day 23 or 24): 2384.33 ± 932.43 ng/mL | T1/2 ([2]; Day 23 or 24): 27.19 ± 9.07 h | Tmax ([2]; Day 23 or 24): 1.83 ± 0.41 h | RP2D (Japan) [3]: 150 mg QD | AUC0-24 [4, 6]: 16510 ± 11020 ng·h/mL | Cmax [4, 6]: 1136 ± 865 ng/mL | T1/2 [4, 6]: 20 ± 9.74 h | AUC0-24 [4, 10]: 38420 ± 29550 ng·h/mL | Cmax [4, 10]: 2120 ± 1520 ng/mL | T1/2 [4, 10]: 18.18 ± 5.74 h | RP2D (Western) [5]: 150 mg QD

CO[C@H]1C[C@@H]2CC[C@@H](C)[C@@](O)(O2)C(=O)C(=O)N2CCCC[C@H]2C(=O)O[C@H]([C@H](C)C[C@@H]2CC[C@@H](OCCO)[C@H](OC)C2)CC(=O)[C@H](C)/C=C(\C)[C@@H](O)[C@@H](OC)C(=O)[C@H](C)C[C@H](C)/C=C/C=C/C=C/1C [Everolimus]
RP2D (Japan) [3]: 10 mg QD

CS(=O)(=O)CCNCc1ccc(-c2ccc3ncnc(Nc4ccc(OCc5cccc(F)c5)c(Cl)c4)c3c2)o1 [Lapatinib]
RP2D (Japan) [3]: 1500 mg QD | RP2D (Western) [5]: 1250 mg QD

COc1cc2nccc(Oc3ccc(NC(=O)NC4CC4)c(Cl)c3)c2cc1C(N)=O [Lenvatinib]
AUC0-24 ([2]; Day 1): 3150 ng·h/mL | Cmax ([2]; Day 1): 418 ng/mL | AUC0-24 ([2]; Day 15): 4140 ng·h/mL | Cmax ([2]; Day 15): 518 ng/mL | Tmax ([2]; Day 15): 2.0 h | AUC0-24 [4, 6]: 3913.8 ng·h/mL | Cmax [4, 6]: 598.0 ng/mL | T1/2 [4, 6]: 5.3 h | Tmax [4, 6]: 1.5 h | AUC0-24 [4, 7]: 4783.0 ng·h/mL | Cmax [4, 7]: 579.1 ng/mL | T1/2 [4, 7]: 5.8 h | Tmax [4, 7]: 2.8 h

Cc1ccc(Nc2nccc(N(C)c3ccc4c(C)n(C)nc4c3)n2)cc1S(N)(=O)=O [Pazopanib]
RP2D (Western) [5]: 800 mg QD

CNC(=O)c1cc(Oc2ccc(NC(=O)Nc3ccc(Cl)c(C(F)(F)F)c3)c(F)c2)ccn1 [Regorafenib]
MTD [1]: 160 mg QD | RP2D (Japan) [3]: 160 mg QD | AUC0-24 [4, 11]: 58270 ng·h/mL | Cmax [4, 11]: 3904 ng/mL | T1/2 [4, 11]: 22.23 h | Tmax [4, 11]: 5.033 h | RP2D (Western) [5]: 160 mg QD

CNC(=O)c1cc(Oc2ccc(NC(=O)Nc3ccc(Cl)c(C(F)(F)F)c3)cc2)ccn1 [Sorafenib]
RP2D (Japan) [3]: 400 mg BID | RP2D (Western) [5]: 400 mg BID

CCN(CC)CCNC(=O)c1c(C)[nH]c(/C=C2\C(=O)Nc3ccc(F)cc32)c1C [Sunitinib]
MTD [1]: 50 mg QD | AUC0-24 ([2]; Day 1): 374 ng·h/mL | Cmax ([2]; Day 1): 22.8 ng/mL | Tmax ([2]; Day 1): 7 h | AUC0-24 ([2]; Day 28): 1406 ng·h/mL | Cmax ([2]; Day 28): 69.3 ng/mL | Tmax ([2]; Day 28): 6 h | RP2D (Japan) [3]: 50 mg QD | AUC0-24 [4, 6]: 420 ng·h/mL | Tmax [4, 6]: 5.0 h | AUC0-24 [4, 7]: 1296 ng·h/mL | Tmax [4, 7]: 8.5 h | RP2D (Western) [5]: 50 mg QD

COc1cc2c(Nc3ccc(Br)cc3F)ncnc2cc1OCC1CCN(C)CC1 [Vandetanib]
RP2D (Japan) [3]: 300 mg QD | RP2D (Western) [5]: 300 mg QD

CCCS(=O)(=O)Nc1ccc(F)c(C(=O)c2c[nH]c3ncc(-c4ccc(Cl)cc4)cc23)c1F [Vemurafenib]
MTD [1]: 960 mg BID | T1/2 ([2]; Day 1): 12.7 h | T1/2 ([2]; Day 15): 60.8 h | RP2D (Japan) [3]: 960 mg BID | Cmax [4, 8]: 61400 ng/mL | T1/2 [4, 8]: 34.1 h | Cmax ([4]; in vivo): 4800 ng/mL | Tmax ([4]; in vivo): 5.0 h | RP2D (Western) [5]: 960 mg BID
